The values below are quoted from earlier work in US20040180006A1, “Methods and compositions for blocking the calcium cascade” (priority 2003, published 2004).

Like-named read-outs stand apart in the source and are kept apart here.

For series [1], the system named is mast cell plasma membrane potential. The conditions noted are these: for effect on second (delayed) decrease of bis-oxonol fluorescence: induced by compound 48/80 or antigenic stimulation.
Series [2] has as its system rat peritoneal mast cells.
Series [3] concerns rat basophilic leukemia cells (RBL 2H3). The conditions noted are these: RBL 2H3 cells stimulated by immunoglobulin E-antigen; read-out: concentration required to inhibit histamine secretion from RBL 2H3 cells, immunoglobulin E-antigen.
The test system of a further series is guinea pig trachea. The conditions noted are these: 10^-4 to 10^-3 M.

As for `C[C@@H]1O[C@@H](O[C@H]2C[C@@H](O)[C@]3(CO)[C@H]4[C@H](O)C[C@]5(C)[C@@H](C6=CC(=O)OC6)CC[C@]5(O)[C@@H]4CC[C@]3(O)C2)[C@H](O)[C@H](O)[C@H]1O` [ouabain], in series [1], the “effect on second (delayed) decrease of bis-oxonol fluorescence” value is reported as “inhibited”.
On to zinc gluconate, for which the IC50 was 18 µM in series [2] (peritoneal cells stimulated by imunoglobulin E-antigen, read-out: IC50 of histamine secretion, imunoglobulin E-antigen); 1.6 µM in series [2] (peritoneal cells stimulated by ionophore A23187, read-out: IC50 of histamine secretion, ionophore A23187); 1.9 µM in series [2] (peritoneal cells stimulated by phorbol 12-myristate 13-acetate, read-out: IC50 of histamine secretion, phorbol 12-myristate 13-acetate); 5.4 µM in series [2] (peritoneal cells stimulated by substance P, read-out: IC50 of histamine secretion, substance P); 140 µM in series [3]. For the same compound, in the series on guinea pig trachea, the “IgE-dependent contraction of guinea pig trachea” value was “inhibited”. In the series with guinea pig trachea, the “contraction of guinea pig trachea induced by endogenous histamine” value is “unable to affect”. In series [1] (induced by compound 48/80), the “effect on first (fast) decrease of bis-oxonol fluorescence” value was “inhibited”. The “effect on second (delayed) decrease of bis-oxonol fluorescence” value in series [1] is recorded as “did not alter”.
